The values that follow come from patent US10815221B2, “Crystal forms of an androgen receptor antagonist, preparation method and use thereof” (Crystal Pharmaceutical (Suzhou) Co., Ltd., priority 2016, dated 2020).

What all share (format): physicochemical
The nature of data set [1]: Hygroscopicity by dynamic vapor sorption (DVS). The conditions noted are these: for Hygroscopicity / Weight gain under 80% RH: DVS, 80% RH; for Solid Form after DVS: XRPD after DVS test. The protocol:
Dynamic vapor sorption (DVS) was applied to test hygroscopicity of Form B, Form C and crystalline form I in the prior art with about 10 mg of samples. The DVS plot of Form B is substantially as depicted in FIG. 10 and the XRPD pattern overlay before and after DVS test of Form B is substantially as depicted in FIG. 11. The DVS plot of Form C is substantially as depicted in FIG. 12 and the XRPD pattern overlay before and after DVS test of Form C is substantially as depicted in FIG. 13. The DVS plot of crystalline form I in the prior art is substantially as depicted in FIG. 14.

The nature of data set [2]: Storage stability of crystalline form (XRPD). The conditions noted are these: for Change of Solid Form: 3 months. The protocol: Samples of Form B were stored under different conditions of 25° C./60% RH (open), 40° C./75% RH (open) for 3 months, and XRPD was applied to test the crystalline form.
Samples of Form C were stored at 25° C./60% RH (open) for 1 month, and XRPD was applied to test the crystalline form.

A short description of data set [3]: Solubility in SGF, FeSSIF and FaSSIF by HPLC. The method, then:
High Performance Liquid Chromatography (HPLC) data in the present disclosure are collected from Agilent 1260 with diode array detector (DAD).
The HPLC method parameters for solubility in the present disclosure are as follows:
1. Column: Agilent Infinity Lab Poroshell 120 EC-C18 150*3.0 mm, 2.7 μm
2. Mobile Phase: A: 25 mmol/L KH2PO4 aqueous solution
3. Flow rate: 0.7 mL/min 4. Injection Volume: 5 μL 5. Detection wavelength: 220 nm 6. Column Temperature: 40° C. 7. Diluent: Acetonitrile/H2O (v/v, 1/1)
Samples of Form B in the present disclosure and crystalline form I disclosed in WO2016120530A1 were suspended into SGF (simulated gastric fluids, pH=1.8), FeSSIF (Fed state simulated intestinal fluids, pH=5.0) and FaSSIF (Fasted state simulated intestinal fluids, pH=6.5) to get saturated solutions. After equilibrated for 1 hour and 4 hours, concentrations of the saturated solutions were measured by HPLC.
Samples of Form C in the present disclosure and crystalline form I disclosed in WO2016120530A1 were suspended into FeSSIF (Fed state simulated intestinal fluids, pH=5.0) and FaSSIF (Fasted state simulated intestinal fluids, pH=6.5) to get saturated solutions. After equilibrated for 1 hour and 4 hours, concentrations of the saturated solutions were measured by HPLC.

Data set [4] in a line: Grinding stability (XRPD before and after grinding). As to conditions: manually ground in a mortar for 5 minutes. The protocol: About 20 mg of Form C in the present disclosure and crystalline form I disclosed in WO2016120530A1 were manually ground in a mortar for 5 minutes. XRPD tests of the samples before and after grinding were carried out. The XRPD patterns of Form C were shown in FIG. 20 (top: XRPD pattern after grinding, bottom: XRPD pattern before grinding), and the XRPD patterns of crystalline form I were shown in FIG. 21 (top: XRPD pattern after grinding, bottom: XRPD pattern before grinding).

Data set [5] in a line: Particle size distribution (laser particle size analyzer). As to conditions: for D10 / D50 / D90 / MV (average particle size by volume): wet process, Isopar G. The protocol:
The particle size distribution test in the present disclosure is acquired by the S3500 laser particle size analyzer of Microtrac. Microtrac S3500 is equipped with the SDC (Sample Delivery Controller). The test is carried out by wet process, and the dispersion medium is Isopar G. The parameters are as follows:
The particle size distribution of Form B in the present disclosure and Form I disclosed in WO2016120530A1 were tested.

Values after ≈ are worked out from the molar mass of the structure shown. “Also recorded” adds a separate entry of the source.

One may read the Solubility as how much of the substance goes into solution per volume. On to `CC(O)c1cc(C(=O)N[C@@H](C)Cn2ccc(-c3ccc(C#N)c(Cl)c3)n2)n[nH]1` (single isomer, unassigned) [Form C], for which the Hygroscopicity result in data set [1] is “slightly hygroscopic”. Also, in data set [1], the “Weight gain under 80% RH” value came out at 1.60%. Also, the “Solid Form after DVS” value in data set [1] is “remain unchanged; also recorded: Form C”. The “Time the form keeps stable” value in data set [2] (25° C./60% RH) was “at least 1 month”. Further, the Solubility in data set [3] (FaSSIF pH=6.5, 1 hour) amounted to 39.0 µg/mL (≈ 97.8 µM); in data set [3] (FaSSIF pH=6.5, 4 hours), 35.5 µg/mL (≈ 89 µM); in data set [3] (FeSSIF pH=5.0, 1 hour), 469.6 µg/mL (≈ 1180 µM); in data set [3] (FeSSIF pH=5.0, 4 hours), 163.1 µg/mL (≈ 409 µM). The Crystallinity after grinding result in data set [4] is given as “remains good crystallinity after grinding”.

By solubility is commonly meant the concentration that dissolves in the medium under given conditions. Regarding `CC(O)c1cc(C(=O)N[C@@H](C)Cn2ccc(-c3ccc(C#N)c(Cl)c3)n2)n[nH]1` (single isomer, unassigned) [Form B], in data set [1], the Hygroscopicity entry is on record as “slightly hygroscopic”, the “Weight gain under 80% RH” value is recorded as 0.93% and the “Solid Form after DVS” value was “remain unchanged; also recorded: Form B”. In addition, in data set [2] (25° C./60% RH), the “Time the form keeps stable” value is given as “at least 3 months”. Further, the “Change of Solid Form” value in data set [2] (25° C./60% RH (open)) was “physically stable”. Moreover, the “Time the form keeps stable” value in data set [2] (40° C./75% RH) is listed as “at least 3 months”. In addition, the “Change of Solid Form” value in data set [2] (40° C./75% RH (open)) is reported as “physically stable”. For the same molecule, in data set [5], the “Particle size distribution pattern” value was “unimodal and normal distribution”; the D10 was 1.20 μm; the D50 is 2.73 μm; the D90 is on record as 5.49 μm. Besides, the “MV (average particle size by volume)” value in data set [5] stood at 3.12 μm. The molecule also yielded a Solubility in data set [3] (FaSSIF pH=6.5, 1 hour) of 3.0 µg/mL (≈ 7.52 µM). For the same molecule, the Solubility in data set [3] (FaSSIF pH=6.5, 4 hours) is 0.5 µg/mL (≈ 1.25 µM). In data set [3] (FeSSIF pH=5.0, 1 hour), the Solubility turned out to be 408.1 µg/mL (≈ 1020 µM). The molecule also yielded a Solubility in data set [3] (SGF pH=1.8, 1 hour) of 62.7 µg/mL (≈ 157 µM). For the same molecule, the Solubility in data set [3] (SGF pH=1.8, 4 hours) worked out at 33.5 µg/mL (≈ 84 µM). In data set [3] (fed state simulated intestinal fluid (FeSSIF), pH 5, fessif, thermodynamic from solid, FeSSIF pH=5.0, 4 hours), this molecule gave a solubility at 4 h of 288 µg/mL (≈ 722 µM).

With `CC(O)c1cc(C(=O)N[C@@H](C)Cn2ccc(-c3ccc(C#N)c(Cl)c3)n2)n[nH]1` (some centres unmarked) [Crystalline form I, reference compound], in data set [1], the Hygroscopicity result is given as “hygroscopic” and the “Weight gain under 80% RH” value is given as over 2.37%. In addition, in data set [5], the “Particle size distribution pattern” value was “bimodal distribution”, the D10 is 24.97 μm, the D50 turned out to be 100.5 μm and the D90 is reported as 297.4 μm. Besides, the “MV (average particle size by volume)” value in data set [5] turned out to be 136.1 μm. In data set [3] (FaSSIF pH=6.5, 1 hour), this molecule had a Solubility of 1.0 µg/mL (≈ 2.51 µM). For the same molecule, the Solubility in data set [3] (FaSSIF pH=6.5, 4 hours) amounted to 0.1 µg/mL (≈ 0.251 µM). Further, the Solubility in data set [3] (FeSSIF pH=5.0, 1 hour) is 183.1 µg/mL (≈ 459 µM). Further, the Solubility in data set [3] (FeSSIF pH=5.0, 4 hours) stood at 206.3 µg/mL (≈ 517 µM). For the same molecule, in data set [3] (SGF pH=1.8, 1 hour), the Solubility came to 14.0 µg/mL (≈ 35.1 µM). Moreover, the Solubility in data set [3] (SGF pH=1.8, 4 hours) is 9.9 µg/mL (≈ 24.8 µM). In addition, the Crystallinity after grinding result in data set [4] is recorded as “decreased significantly”.
